From patent publication US10258042B2, “Substituted pyrazolylpyrazole derivative and use of same as herbicide” (KYOYU AGRI CO., LTD., priority 2015, dated 2019)

Legend:
Type in all cases: in vivo
[1] = test system: Oryza sativa; test: Paddy herbicidal activity test, phytotoxicity to transplanted rice; details: rice plants in the 2.0 leaf stage transplanted, 30 days, 30° C.
Description: (§1) Rice paddy soil was filled into a 1/10000 are pot followed by the addition of suitable amounts of water and chemical fertilizer, kneading, seeding with Echinochloa crus-galli, Monochoria vaginalis and Scirpus juncoides and maintaining in an irrigated state at a water depth of 3 cm.
(§2) Wettable powders of Target Compound (I) shown in Table 1 prepared in compliance with the preparation examples were diluted with a suitable amount of water, rice plants in the 2.0 leaf stage were transplanted during 3.5 leaf stage of Echinochloa crus-galli, and treated by dropping in chemical in the prescribed amount per 10 are using a pipette.
(§3) After treating for 30 days in a glass greenhouse at an average atmospheric temperature of 30° C., the herbicidal efficacy thereof was investigated.
(§4) Evaluation of herbicidal efficacy was carried out by comparing growth inhibition rate (%) with an untreated group, while evaluation of phytotoxicity was carried out by comparing growth inhibition rate (%) with the state of a complete eradication group, and were evaluated at 11 levels indicated below.

[2] = test system: Digitaria ciliaris; test: Farming soil treatment test; details: soil surface spray prior to weed growth, 30 days, 30° C.
Description: (§5) Field soil was filled into a 1/6000 are pot followed by seeding with Digitaria ciliaris, Chenopodium album and Amaranthus retroflexus and covering with soil.
(§6) Wettable powders of compounds of formula (I) shown in Table 1 prepared in compliance with the preparation examples were diluted with water to the prescribed amount of chemical and uniformly sprayed onto each soil surface layer using 100 liters of sprayed water per 10 are prior to weed growth following seeding.
as §3
(§7) Evaluation of herbicidal efficacy was carried out in the same manner as the above-mentioned Test Example 1,

[3] = test system: Amaranthus retroflexus; test: Farming soil treatment test; details: soil surface spray prior to weed growth, 30 days, 30° C.
Description: as §5, §6, §3, §7

[4] = test system: Chenopodium album; test: Farming soil treatment test; details: soil surface spray prior to weed growth, 30 days, 30° C.
Description: as §5, §6, §3, §7

[5] = test system: Monochoria vaginalis; test: Paddy herbicidal activity test; details: irrigated paddy pot, 30 days, 30° C.
Description: as §1, §2, §3, §4

[6] = test system: Echinochloa crus-galli; test: Paddy herbicidal activity test; details: irrigated paddy pot, treated at 3.5 leaf stage of Echinochloa crus-galli, 30 days, 30° C.
Description: as §1, §2, §3, §4

[7] = test system: Scirpus juncoides; test: Paddy herbicidal activity test; details: irrigated paddy pot, 30 days, 30° C.
Description: as §1, §2, §3, §4

[8] = test system: Digitaria ciliaris; test: Weed foliar treatment test (Test Example 4, higher leaf stage); details: 10 g a.i./10a; foliar spray at 4.0 to 5.0 leaf stage of Digitaria ciliaris (plant height 10 cm to 15 cm); 20 days, 25° C.
Description: (§8) Field soil was filled into a 1/4500 are pot followed by seeding with Digitaria ciliaris and Galinsoga parviflora, covering with soil and cultivating in a glass greenhouse at an average atmospheric temperature of 25° C.
(§9) Wettable powders of Target Compound (I) shown in Table 1 prepared in compliance with the preparation examples were diluted with water to the prescribed amount of chemical and uniformly sprayed onto the weeds using 100 liters of sprayed water per 10 are when Digitaria ciliaris had grown to the 4.0 to 5.0 leaf stage (plant height: 10 cm to 15 cm).
(§10) After treating for 20 days in a glass greenhouse at an average atmospheric temperature of 25° C., the herbicidal efficacy thereof was investigated.
(§11) Evaluation of herbicidal efficacy was carried out in the same manner as the above-mentioned Test Example 1.

[9] = test system: Galinsoga parviflora; test: as above; details: 10 g a.i./10a; foliar spray at 4.0 to 5.0 leaf stage of Digitaria ciliaris; 20 days, 25° C.
Description: as §8, §9, §10, §11

[10] = test system: Digitaria ciliaris; test: Weed foliar treatment test (Test Example 3); details: foliar spray at 1.0 to 2.0 leaf stage of Digitaria ciliaris, 3 weeks, 25° C.
Description: (§12) Soil was filled into a 1/6000 are pot followed by seeding with Digitaria ciliaris, Chenopodium album and Amaranthus retroflexus, covering with soil, and cultivating in a glass greenhouse at an average atmospheric temperature of 25° C.
(§13) Wettable powders of Target Compound (I) shown in Table 1 prepared in compliance with the preparation examples were diluted with water to the prescribed amount of chemical and uniformly sprayed onto the weeds using 150 liters of sprayed water per 10 are when Digitaria ciliaris had grown to the 1.0 to 2.0 leaf stage.
(§14) After treating for 3 weeks in a glass greenhouse at an average atmospheric temperature of 25° C., the herbicidal efficacy thereof was investigated.
as §11

[11] = test system: Amaranthus retroflexus; test: Weed foliar treatment test (Test Example 3); details: foliar spray at 1.0 to 2.0 leaf stage of Digitaria ciliaris, 3 weeks, 25° C.
Description: as §12, §13, §14, §11

[12] = test system: Chenopodium album; test: Weed foliar treatment test (Test Example 3); details: foliar spray at 1.0 to 2.0 leaf stage of Digitaria ciliaris, 3 weeks, 25° C.; for herbicidal efficacy, Chenopodium alubum: 5 g a.i./10a; for herbicidal efficacy, Chenopodium album: 10 g a.i./10a
Description: as §12, §13, §14, §11

| SMILES | phytotoxicity, Oryza sativa ([1]; 1 g a.i./10a) | phytotoxicity, Oryza sativa ([1]; 5 g a.i./10a) | herbicidal efficacy, Digitaria ciliaris ([2]; 5 g a.i./10a) | herbicidal efficacy, Digitaria ciliaris ([2]; 10 g a.i./10a) | herbicidal efficacy, Amaranthus retroflexus ([3]; 5 g a.i./10a) | herbicidal efficacy, Amaranthus retroflexus ([3]; 10 g a.i./10a) | herbicidal efficacy, Chenopodium album ([4]; 5 g a.i./10a) | herbicidal efficacy, Chenopodium album ([4]; 10 g a.i./10a) | herbicidal efficacy, Monochoria vaginalis ([5]; 1 g a.i./10a) | herbicidal efficacy, Monochoria vaginalis ([5]; 5 g a.i./10a) | herbicidal efficacy, Echinochloa crus-galli ([6]; 1 g a.i./10a) | herbicidal efficacy, Echinochloa crus-galli ([6]; 5 g a.i./10a) | herbicidal efficacy, Scirpus juncoides ([7]; 1 g a.i./10a) | herbicidal efficacy, Scirpus juncoides ([7]; 5 g a.i./10a) | herbicidal efficacy, Digitaria ciliaris [8] | herbicidal efficacy, Galinsoga parviflora [9] | herbicidal efficacy, Digitaria ciliaris ([10]; 5 g a.i./10a) | herbicidal efficacy, Digitaria ciliaris ([10]; 10 g a.i./10a) | herbicidal efficacy, Amaranthus retroflexus ([11]; 5 g a.i./10a) | herbicidal efficacy, Amaranthus retroflexus ([11]; 10 g a.i./10a) | further results |
| --- | --- | --- | --- | --- | --- | --- | --- | --- | --- | --- | --- | --- | --- | --- | --- | --- | --- | --- | --- | --- | --- |
| N#Cc1cnn(-c2nn3c(c2Cl)CCCC3)c1NC(=O)CCCCl [Control agent 1.37, reference compound] | 2 (2: 20% to less than 30%) | 2 (2: 20% to less than 30%) | – | – | – | – | – | – | – | – | – | – | – | – | – | – | – | – | – | – | – |
| CCCC(=O)Nc1c(C#N)cnn1-c1nn2c(c1Cl)CCCC2 [Control agent 4.188, reference compound] | 2 (2: 20% to less than 30%) | 2 (2: 20% to less than 30%) | 0 (0 (exponent): 0% to less than 10% (growth inhibition rate)) | 1 (1: 10% to less than 20%) | 4 (4: 40% to less than 50%) | 4 (4: 40% to less than 50%) | 2 (2: 20% to less than 30%) | 3 (3: 30% to less than 40%) | 3 (3: 30% to less than 40%) | 3 (3: 30% to less than 40%) | 2 (2: 20% to less than 30%) | 3 (3: 30% to less than 40%) | 0 (0 (exponent): 0% to less than 10% (growth inhibition rate)) | 1 (1: 10% to less than 20%) | 0 (0 (exponent): 0% to less than 10% (growth inhibition rate)) | 4 (4: 40% to less than 50%) | 1 (1: 10% to less than 20%) | 2 (2: 20% to less than 30%) | 4 (4: 40% to less than 50%) | 5 (5: 50% to less than 60%) | herbicidal efficacy, Chenopodium alubum [12]: 3 (3: 30% to less than 40%); herbicidal efficacy, Chenopodium album [12]: 5 (5: 50% to less than 60%) |
| CCCCC(=O)Nc1c(C#N)cnn1-c1nn2c(c1Cl)CCCC2 [Control agent 4.191, reference compound] | 1 (1: 10% to less than 20%) | 1 (1: 10% to less than 20%) | 0 (0 (exponent): 0% to less than 10% (growth inhibition rate)) | 0 (0 (exponent): 0% to less than 10% (growth inhibition rate)) | 2 (2: 20% to less than 30%) | 3 (3: 30% to less than 40%) | 3 (3: 30% to less than 40%) | 3 (3: 30% to less than 40%) | 2 (2: 20% to less than 30%) | 2 (2: 20% to less than 30%) | 2 (2: 20% to less than 30%) | 2 (2: 20% to less than 30%) | 0 (0 (exponent): 0% to less than 10% (growth inhibition rate)) | 1 (1: 10% to less than 20%) | 0 (0 (exponent): 0% to less than 10% (growth inhibition rate)) | 3 (3: 30% to less than 40%) | 0 (0 (exponent): 0% to less than 10% (growth inhibition rate)) | 0 (0 (exponent): 0% to less than 10% (growth inhibition rate)) | 4 (4: 40% to less than 50%) | 5 (5: 50% to less than 60%) | herbicidal efficacy, Chenopodium alubum [12]: 3 (3: 30% to less than 40%); herbicidal efficacy, Chenopodium album [12]: 2 (2: 20% to less than 30%) |
